These results are taken from patent US12508271B2, “Prodrugs of 2-PMPA for healthy tissue protection during PSMA-targeted cancer imaging or radiotherapy” (The Johns Hopkins University, priority 2017, dated 2025).

The target of series [1] is T1, PSMA (Homo sapiens, UniProt Q04609). More on the design: from tissue; host or cells: kidneys, salivary and lacrimal glands, and tumour lesions/metastases of living human subjects (PET / gamma imaging). The conditions noted are these: without Tris-POC-2-PMPA; same center (Kratochwil et al., 2016); cited from earlier work.
For series [2] the following is noted: cited from earlier work.
Series [3] addresses T1, PSMA. Kind of series: Tumor, kidney and salivary gland uptake of 68Ga-PSMA-617 in a prostate cancer patient with and without Tris-POC-2-PMPA pre-dosing (PET). The class given is in vivo. Also noted: from tissue; host or cells: kidneys, salivary and lacrimal glands, and tumour lesions/metastases of living human subjects (PET / gamma imaging). The conditions noted are these: PET 1 hour after administration, no Tris-POC-2-PMPA. On the procedure: One patient was PET imaged 1 h after injection of ^68Ga-PSMA-617 and quantified per SUVmax for tracer uptake in tumor, kidneys and salivary glands. On a subsequent day, the same patient was imaged using the same protocol but with pretreatment of 10 mg (0.1 mg/kgBW) Tris-POC-2-PMPA solution (in 2.5 mL of 30% ethanol) 15 min before application of the PET-tracer.

Where [4] appears, read: other mCRPC patients, literature.

T1 sequence (Q04609 whole entry): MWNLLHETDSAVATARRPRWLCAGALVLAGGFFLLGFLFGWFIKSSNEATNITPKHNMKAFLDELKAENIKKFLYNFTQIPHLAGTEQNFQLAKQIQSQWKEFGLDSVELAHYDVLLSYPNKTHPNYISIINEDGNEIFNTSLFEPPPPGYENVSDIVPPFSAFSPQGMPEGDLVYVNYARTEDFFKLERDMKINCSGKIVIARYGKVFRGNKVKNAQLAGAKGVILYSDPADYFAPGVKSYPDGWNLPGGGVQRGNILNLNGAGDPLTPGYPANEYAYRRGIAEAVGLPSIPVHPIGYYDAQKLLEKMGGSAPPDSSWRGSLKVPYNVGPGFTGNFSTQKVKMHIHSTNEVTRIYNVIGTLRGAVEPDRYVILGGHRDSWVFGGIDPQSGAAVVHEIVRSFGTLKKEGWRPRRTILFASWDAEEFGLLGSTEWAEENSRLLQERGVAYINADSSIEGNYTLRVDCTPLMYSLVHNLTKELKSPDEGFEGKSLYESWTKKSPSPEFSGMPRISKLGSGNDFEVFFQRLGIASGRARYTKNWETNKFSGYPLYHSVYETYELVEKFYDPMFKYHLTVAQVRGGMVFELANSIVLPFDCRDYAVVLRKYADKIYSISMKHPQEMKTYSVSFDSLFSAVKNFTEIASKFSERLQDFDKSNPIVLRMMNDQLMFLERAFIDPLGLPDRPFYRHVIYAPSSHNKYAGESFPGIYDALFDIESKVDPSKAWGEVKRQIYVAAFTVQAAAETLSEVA

As to `O=C([O-])CN1CCN(CC(=O)[O-])CCN(CC(=O)NCC2CCC(C(=O)N[C@@H](Cc3ccc4ccccc4c3)C(=O)NCCCC[C@H](NC(=O)N[C@@H](CCC(=O)O)C(=O)O)C(=O)O)CC2)CCN(CC(=O)[O-])CC1.[177Lu+3]` (some centres unmarked) [^177Lu-PSMA-617], on PSMA [1], the “mean absorbed dose to the kidneys, historical controls” value is on record as 0.78 Gy/GBq; the “mean absorbed dose to the red marrow, historical controls” value is reported as 0.03 Gy/GBq; the “mean absorbed dose to the salivary glands, historical controls” value is given as 1.44 Gy/GBq. The “mean effective dose to the lacrimal glands” value in series [2] (Hohberg et al., 2016) is on record as 2.82 Gy/GBq. In series [2] (setting [4]), the “absorbed dose to the kidneys, reported range” value is listed as 0.53-0.99 Gy/GBq; the “absorbed dose to the red marrow, reported range” value is reported as 0.01-0.05 Gy/GBq; the “absorbed dose to the salivary glands, reported range” value was 0.72-1.90 Gy/GBq.
With `O=C([O-])CN1CCN(CC(=O)[O-])CCN(CC(=O)NC[C@H]2CC[C@H](C(=O)N[C@@H](Cc3ccc4ccccc4c3)C(=O)NCCCC[C@H](NC(=O)N[C@@H](CCC(=O)O)C(=O)O)C(=O)O)CC2)CCN(CC(=O)[O-])CC1.[68Ga+3]` [^68Ga-PSMA-617, reference compound], at PSMA [3], the “uptake in kidneys without pre-treatment” value is 35.4 SUVmax, the “uptake in metastases without pre-treatment” value is 3.6-12.5 SUVmax, the “uptake in parotid gland without pre-treatment” value was found to be 18.2 SUVmax and the “uptake in submandibular gland without pre-treatment” value is listed as 23.1 SUVmax.
